Assays:
Rattus norvegicus [1] = assay: Toxicity in rat spontaneous hypertensive model assessed as heart rate at 80 mg/kg, po measured at 2 hrs by tail-cuff method (reference value: 399.5 +/- 19.68 bpm); format: organism-based; design: dose 80 mg/kg, route oral; settings: in vivo
Rattus norvegicus [2] = assay: Antihypertensive activity in rat spontaneous hypertensive model assessed as mean arterial blood pressure at 80 mg/kg, po measured at 1 hr by tail-cuff method (reference value: 158.9 +/- 13.65 mmHg); format: functional, Artery
Rattus norvegicus [3] = assay: Antihypertensive activity in rat spontaneous hypertensive model assessed as diastolic arterial blood pressure at 80 mg/kg, po measured at 4 hrs by tail-cuff method (reference value: 141.4 +/- 7.11 mmHg); format: functional, Artery
Rattus norvegicus [4] = assay: Antihypertensive activity in rat spontaneous hypertensive model assessed as mean arterial blood pressure at 80 mg/kg, po measured at 6 hrs by tail-cuff method (reference value: 155.8 +/- 7.97 mmHg); format: functional, Artery
Rattus norvegicus [5] = assay: Toxicity in rat spontaneous hypertensive model assessed as heart rate at 80 mg/kg, po measured at 1 hr by tail-cuff method (reference value: 403.9 +/- 12.41 bpm); format: organism-based; design: dose 80 mg/kg, route oral; settings: in vivo
Rattus norvegicus [6] = assay: Antihypertensive activity in rat spontaneous hypertensive model assessed as systolic arterial blood pressure at 80 mg/kg, po measured at 8 hrs by tail-cuff method (reference value: 174 +/- 12.1 mmHg); format: functional, Artery
Rattus norvegicus [7] = assay: Antihypertensive activity in rat spontaneous hypertensive model assessed as diastolic arterial blood pressure at 80 mg/kg, po measured at 2 hrs by tail-cuff method (reference value: 142.9 +/- 18.07 mmHg); format: functional, Artery
Rattus norvegicus [8] = assay: Toxicity in rat spontaneous hypertensive model assessed as heart rate at 80 mg/kg, po measured at 6 hrs by tail-cuff method (reference value: 405.1 +/- 24 bpm); format: organism-based; design: dose 80 mg/kg, route oral; settings: in vivo
Rattus norvegicus [9] = assay: Antihypertensive activity in rat spontaneous hypertensive model assessed as diastolic arterial blood pressure at 80 mg/kg, po measured at 1 hr by tail-cuff method (reference value: 146.2 +/- 13.19 mmHg); format: functional, Artery
Rattus norvegicus [10] = assay: Antihypertensive activity in rat spontaneous hypertensive model assessed as systolic arterial blood pressure at 80 mg/kg, po measured at 4 hrs by tail-cuff method (reference value: 172.9 +/- 10.21 mmHg); format: functional, Artery
Rattus norvegicus [11] = assay: Toxicity in rat spontaneous hypertensive model assessed as heart rate at 80 mg/kg, po measured at 4 hrs by tail-cuff method (reference value: 403.1 +/- 15.92 bpm); format: organism-based; design: dose 80 mg/kg, route oral; settings: in vivo
Rattus norvegicus [12] = assay: Antihypertensive activity in rat spontaneous hypertensive model assessed as mean arterial blood pressure at 80 mg/kg, po measured at 0.5 hrs by tail-cuff method (reference value: 156.2 +/- 7.21 mmHg); format: functional, Artery
Rattus norvegicus [13] = assay: Antihypertensive activity in rat spontaneous hypertensive model assessed as diastolic arterial blood pressure at 80 mg/kg, po measured at 0.5 hrs by tail-cuff method (reference value: 138.7 +/- 9.2 mmHg); format: functional, Artery
Rattus norvegicus [14] = assay: Antihypertensive activity in rat spontaneous hypertensive model assessed as systolic arterial blood pressure at 80 mg/kg, po measured at 1 hr by tail-cuff method (reference value: 181.2 +/- 16.37 mmHg); format: functional, Artery
Rattus norvegicus [15] = assay: Antihypertensive activity in rat spontaneous hypertensive model assessed as diastolic arterial blood pressure at 80 mg/kg, po measured at 8 hrs by tail-cuff method (reference value: 135.3 +/- 8.21 mmHg); format: functional, Artery
Rattus norvegicus [16] = assay: Antihypertensive activity in rat spontaneous hypertensive model assessed as mean arterial blood pressure at 80 mg/kg, po measured at 8 hrs by tail-cuff method (reference value: 155.8 +/- 11.54 mmHg); format: functional, Artery
Rattus norvegicus [17] = assay: Antihypertensive activity in rat spontaneous hypertensive model assessed as mean arterial blood pressure at 80 mg/kg, po measured at 2 hrs by tail-cuff method (reference value: 157.41 +/- 9.62 mmHg); format: functional, Artery
Rattus norvegicus [18] = assay: Antihypertensive activity in rat spontaneous hypertensive model assessed as mean arterial blood pressure at 80 mg/kg, po measured at 4 hrs by tail-cuff method (reference value: 154.4 +/- 20.1 mmHg); format: functional, Artery
Rattus norvegicus [19] = assay: Toxicity in rat spontaneous hypertensive model assessed as heart rate at 80 mg/kg, po measured at 0.5 hrs by tail-cuff method (reference value: 406.5 +/- 13.15 bpm); format: organism-based; design: dose 80 mg/kg, route oral; settings: in vivo
Rattus norvegicus [20] = assay: Toxicity in rat spontaneous hypertensive model assessed as heart rate at 80 mg/kg, po measured at 8 hrs by tail-cuff method (reference value: 397.2 +/- 24.87 bpm); format: organism-based; design: dose 80 mg/kg, route oral; settings: in vivo
Rattus norvegicus [21] = assay: Antihypertensive activity in rat spontaneous hypertensive model assessed as systolic arterial blood pressure at 80 mg/kg, po measured at 2 hrs by tail-cuff method (reference value: 172.6 +/- 17.3 mmHg); format: functional, Artery
Rattus norvegicus [22] = assay: Antihypertensive activity in rat spontaneous hypertensive model assessed as diastolic arterial blood pressure at 80 mg/kg, po measured at 6 hrs by tail-cuff method (reference value: 141.2 +/- 7.34 mmHg); format: functional, Artery
Rattus norvegicus [23] = assay: Antihypertensive activity in rat spontaneous hypertensive model assessed as systolic arterial blood pressure at 80 mg/kg, po measured at 0.5 hrs by tail-cuff method (reference value: 178.5 +/- 10.13 mmHg); format: functional, Artery
Rattus norvegicus [24] = assay: Antihypertensive activity in rat spontaneous hypertensive model assessed as systolic arterial blood pressure at 80 mg/kg, po measured at 6 hrs by tail-cuff method (reference value: 176.7 +/- 15.21 mmHg); format: functional, Artery

| Structure (SMILES) | Activity (Rattus norvegicus [1]) [bpm] | Activity (Rattus norvegicus [2]) [mmHg] | Activity (Rattus norvegicus [3]) [mmHg] | Activity (Rattus norvegicus [4]) [mmHg] | Activity (Rattus norvegicus [5]) [bpm] | Activity (Rattus norvegicus [6]) [mmHg] | Activity (Rattus norvegicus [7]) [mmHg] | Activity (Rattus norvegicus [8]) [bpm] | Activity (Rattus norvegicus [9]) [mmHg] | Activity (Rattus norvegicus [10]) [mmHg] | Activity (Rattus norvegicus [11]) [bpm] | Activity (Rattus norvegicus [12]) [mmHg] | Activity (Rattus norvegicus [13]) [mmHg] | Activity (Rattus norvegicus [14]) [mmHg] | Activity (Rattus norvegicus [15]) [mmHg] | Activity (Rattus norvegicus [16]) [mmHg] | Activity (Rattus norvegicus [17]) [mmHg] | Activity (Rattus norvegicus [18]) [mmHg] | Activity (Rattus norvegicus [19]) [bpm] | Activity (Rattus norvegicus [20]) [bpm] | other results |
| --- | --- | --- | --- | --- | --- | --- | --- | --- | --- | --- | --- | --- | --- | --- | --- | --- | --- | --- | --- | --- | --- |
| COc1ccc2c(c1OCC(O)CNC(C)C)COC(C)C2=O (stereo not drawn) | 368.8 | 133.1 | 117.7 | 138.9 | 375 | 166.3 | 109.5 | 374.7 | 114.6 | 170.9 | 373.2 | 144.8 | 129.6 | 170.1 | 122.9 | 137.4 | 129.3 | 135.4 | 383.4 | 372.8 | Activity (Rattus norvegicus [21]): 169 mmHg; Activity (Rattus norvegicus [22]): 124.4 mmHg; Activity (Rattus norvegicus [23]): 175.3 mmHg; Activity (Rattus norvegicus [24]): 168 mmHg |
| COc1cc2c(cc1OCC(O)CNC(C)C)C(=O)C(C)OC2 (stereo not drawn) | 356.9 | 128.8 | 99.8 | 121 | 365.6 | 162.6 | 101 | 355.2 | 113.9 | 166.6 | 358.5 | 134 | 113.7 | 164.5 | 107.7 | 124.2 | 122.1 | 118.1 | 367 | 367.7 | Activity (Rattus norvegicus [21]): 165.7 mmHg; Activity (Rattus norvegicus [22]): 99 mmHg; Activity (Rattus norvegicus [23]): 174.1 mmHg; Activity (Rattus norvegicus [24]): 164.2 mmHg |
